# Source: patent US8287923B2, “Compositions and methods for treating immune disorders” (priority 2005, dated 2012)
# Tested on: normal human epidermal keratinocytes (NHEK)
# Assay: Affymetrix gene array analysis, autoantigen gene expression
# Format: cell-based
# Conditions: 100 μM
# Description: The gene array experiment was performed at the Core Facility of Genomics of the Medical College of Georgia, according to the instructions of the manufacturer (Affymetrix, Santa Clara, Calif.). Briefly, NHEK and OSC2 cells treated with 100 μM EGCG for different time period were extracted for total RNA, the RNA was processed for probes and hybridized with a cDNA microarray (HuG133A, Affymetrix) which represents 22,283 human series. DNA chips were read with a Hewlett-Packard GeneArray Scanner at a resolution of […] and were analyzed with the GeneSpring software (Silicon Genetics, Redwood City, Calif.). Details of this analysis will be published elsewhere (Hsu et al., manuscript in preparation).
# Gene assays provide a valuable tool for studying the broad response of cells to agents, and we have used this approach to compare the differential effects of GTPP on gene expression in NHEK and human oral squamous carcinoma cells (Hsu, et al, manuscript in preparation). […] See also Hsu, S. et al. (2005) JPET 315:805-811, which is incorporated by reference in its entirety.
smiles,measurement,setting,value
"O=C(O[C@@H]1Cc2c(O)cc(O)cc2O[C@@H]1c1cc(O)c(O)c(O)c1)c1cc(O)c(O)c(O)c1 [EGCG, (−)-epigallocatechin-3-gallate]","60 kDa, SS-A/Ro (212852_s_at) expression, normalized",6 h,0.85
same,"Ku autoantigen, 80 kDa (208642_s_at) expression, normalized",6 h,0.96
same,"Ku autoantigen, 80 kDa (208643_s_at) expression, normalized",6 h,0.98
same,"Nuclear antigen SP100 (202863_at) expression, normalized",6 h,0.59
same,"Nuclear antigen SP100 (202864_s_at) expression, normalized",6 h,0.64
same,"Nuclear antigen SP10075 kDa (213226_at) expression, normalized",6 h,0.43
same,"RNA polymerase 1 (202692_s-at) expression, normalized",6 h,0.50
same,"SS-B/La (201138_s_at) expression, normalized",6 h,0.57
same,"SS-B/La (201139_s_at) expression, normalized",6 h,0.43
same,"centromere protein C1 (20473_at) expression, normalized",6 h,0.87
same,"coilin (203653_s_at) expression, normalized",6 h,0.60
same,"coilin (203654_s_at) expression, normalized",6 h,0.62
same,"fodrin-α (208611_s_at) expression, normalized",6 h,0.56
same,"fodrin-α (215235_s_at) expression, normalized",6 h,0.75
same,"golgin-67 (208797_s_at) expression, normalized",6 h,0.92
same,"golgin-67 (208798_x_at) expression, normalized",6 h,0.32
same,"golgin-67 (210425_x_at) expression, normalized",6 h,0.19
same,"golgin-67 (213650_at) expression, normalized",6 h,0.69
same,"scleroderma autoantigen 1, 75 kDa (213226_at) expression, normalized",6 h,0.43
same,"spectrin-β non-erythrocyctic 1 (212071_s_at) expression, normalized",6 h,0.95
same,"thyroid autoantigen 70 kDa (Ku antigen) (200792_at) expression, normalized",6 h,1.13
same,ADPRT [poly(ADP)-ribose polymerase] expression,"6 h, vs time zero",0.992 fold
same,ANAP12 expression,"6 h, vs time zero",0.4 fold
same,ANXA11 expression,"6 h, vs time zero",2.141 fold
same,CALR expression,"6 h, vs time zero",1.482 fold
same,CBARA1 expression,"6 h, vs time zero",0.498 fold
same,CENPA expression,"6 h, vs time zero",0.672 fold
same,CENPB expression,"6 h, vs time zero",0.498 fold
same,CENPC1 expression,"6 h, vs time zero",0.869 fold
same,CHD4 expression,"6 h, vs time zero",0.916 fold
same,COL17A1 expression,"6 h, vs time zero",1.043 fold
same,CTDSP1 expression,"6 h, vs time zero",1.25 fold
same,CTDSP2 expression,"6 h, vs time zero",0.92 fold
same,CTDSPL expression,"6 h, vs time zero",2.42 fold
same,DLAT expression,"6 h, vs time zero",1.031 fold
same,EPPK1 expression,"6 h, vs time zero",1.318 fold
same,FBL expression,"6 h, vs time zero",1.09 fold
same,FLJ31657 expression,"6 h, vs time zero",0.435 fold
same,"FLNB (Filamin B, β) expression","6 h, vs time zero",0.751 fold
same,"FLNB (Filamin B, γ) expression","6 h, vs time zero",0.875 fold
same,"G22P1 (Thyroid autoantigen, 70 kDa, Ku antigen) expression","6 h, vs time zero",1.127 fold
same,GMEB2 expression,"6 h, vs time zero",0.626 fold
same,GOLGA1 expression,"6 h, vs time zero",0.68 fold
same,GOLGA2 expression,"6 h, vs time zero",0.769 fold
same,GOLGA3 expression,"6 h, vs time zero",0.547 fold
same,GOLGA4 expression,"6 h, vs time zero",0.353 fold
same,GOLGA5 expression,"6 h, vs time zero",0.731 fold
same,GOLGB1 expression,"6 h, vs time zero",0.56 fold
same,HARS expression,"6 h, vs time zero",0.88 fold
same,HARSL expression,"6 h, vs time zero",0.88 fold
same,HSA6591 expression,"6 h, vs time zero",0.532 fold
same,HUMAUANTIG expression,"6 h, vs time zero",0.444 fold
same,IMP-2 expression,"6 h, vs time zero",0.635 fold
same,LAD1 expression,"6 h, vs time zero",0.954 fold
same,LMO4 expression (repeat 1),"6 h, vs time zero",0.708 fold
same,LMO4 expression (repeat 2),"6 h, vs time zero",1.133 fold
same,MGC5560 expression (repeat 1),"6 h, vs time zero",1.646 fold
same,MGC5560 expression (repeat 2),"6 h, vs time zero",2.605 fold
same,NS (Nucleostemin) expression,"6 h, vs time zero",0.519 fold
same,PDHB expression,"6 h, vs time zero",0.745 fold
same,PDX1 expression,"6 h, vs time zero",0.646 fold
same,"PMSCL1, 75 kDa expression","6 h, vs time zero",0.431 fold
same,PMSCL2 expression,"6 h, vs time zero",1.058 fold
same,POLR1B expression,"6 h, vs time zero",0.98 fold
same,POLR1D expression,"6 h, vs time zero",1.04 fold
same,POLR2A expression (repeat 1),"6 h, vs time zero",1.80 fold
same,POLR2A expression (repeat 2),"6 h, vs time zero",0.44 fold
same,POLR2B expression,"6 h, vs time zero",0.59 fold
same,POLR2C expression,"6 h, vs time zero",1.53 fold
same,POLR2D expression,"6 h, vs time zero",1.04 fold
same,POLR2E expression,"6 h, vs time zero",0.87 fold
same,POLR2F expression,"6 h, vs time zero",1.17 fold
same,POLR2G expression,"6 h, vs time zero",0.74 fold
same,POLR2H expression,"6 h, vs time zero",1.02 fold
same,POLR3C expression,"6 h, vs time zero",0.45 fold
same,POLR3G expression,"6 h, vs time zero",1.05 fold
same,PSME3 expression,"6 h, vs time zero",1.128 fold
same,RALY expression,"6 h, vs time zero",1.496 fold
same,SART1 expression,"6 h, vs time zero",1.462 fold
same,SLC25A16 expression,"6 h, vs time zero",1.099 fold
same,SNRP70 expression,"6 h, vs time zero",2.28 fold
same,SNRPA expression,"6 h, vs time zero",1.35 fold
same,SNRPB2 expression,"6 h, vs time zero",0.56 fold
same,SNRPB expression (repeat 1),"6 h, vs time zero",0.76 fold
same,SNRPB expression (repeat 2),"6 h, vs time zero",0.67 fold
same,SNRPC expression,"6 h, vs time zero",1.28 fold
same,SNRPD1 expression (repeat 1),"6 h, vs time zero",0.658 fold
same,SNRPD1 expression (repeat 2),"6 h, vs time zero",0.612 fold
same,SOX13 expression,"6 h, vs time zero",1.24 fold
same,SP100 expression (repeat 1),"6 h, vs time zero",0.59 fold
same,SP100 expression (repeat 2),"6 h, vs time zero",0.686 fold
same,SP110 expression (repeat 1),"6 h, vs time zero",1.205 fold
same,SP110 expression (repeat 2),"6 h, vs time zero",0.997 fold
same,SP110 expression (repeat 3),"6 h, vs time zero",0.7 fold
same,SPTAN1 (α-fodrin) expression (repeat 1),"6 h, vs time zero",0.56 fold
same,SPTAN1 (α-fodrin) expression (repeat 2),"6 h, vs time zero",0.75 fold
same,SPTBN expression,"6 h, vs time zero",0.95 fold
same,SSA2 (autoantigen SS-A/Ro) expression (repeat 2),"6 h, vs time zero",0.687 fold
same,SSA2 expression (repeat 1),"6 h, vs time zero",0.739 fold
same,SSA2 expression (repeat 3),"6 h, vs time zero",0.571 fold
same,SSA2 expression (repeat 4),"6 h, vs time zero",0.85 fold
same,SSB (autoantigen La) expression (repeat 1),"6 h, vs time zero",0.57 fold
same,SSB (autoantigen La) expression (repeat 2),"6 h, vs time zero",0.427 fold
same,SSNA1 expression,"6 h, vs time zero",1.608 fold
same,SSSCA1 expression,"6 h, vs time zero",1.005 fold
same,STRN3 expression,"6 h, vs time zero",0.528 fold
same,TOP1 expression (repeat 1),"6 h, vs time zero",0.84 fold
same,TOP1 expression (repeat 2),"6 h, vs time zero",0.33 fold
same,UBTF expression,"6 h, vs time zero",0.501 fold
same,"XRCC5 (Ku autoantigen, 80 kDa) expression (repeat 1)","6 h, vs time zero",0.977 fold
same,"XRCC5 (Ku autoantigen, 80 kDa) expression (repeat 2)","6 h, vs time zero",0.958 fold
same,dJ963E22.1 expression,"6 h, vs time zero",0.723 fold
same,α-NAC expression,"6 h, vs time zero",0.0443 fold
same,"60 kDa, SS-A/Ro (210438_x_at) expression, normalized",24 h,0.88
same,"60 kDa, SS-A/Ro (212852_s_at) expression, normalized",24 h,0.94
